Counter-ions that a name gives are not always drawn.

One may read the melting point as the temperature, or range, at which the solid turns liquid.

In the case of `Clc1ccc([C@@H]2Cc3cnc(Nc4cccc(CCN5CCCCC5)c4)nc3-c3ccccc32)cc1Cl` (as salt: hydrochloride) [Example 167, (S)-6-(3,4-dichlorophenyl)-N-(3-(2-(piperidin-1-yl)ethyl)phenyl)-5,6-dihydrobenzo[h]quinazolin-2-amine hydrochloride], the melting point is 165 to 169 °C.

Compound `COCCN1CCN(CCc2ccc(Nc3ncc4c(n3)-c3ccccc3[C@H](c3cccc(Br)c3)C4)cc2)CC1` (as salt: hydrochloride) [Example 77, (S)-6-(3-bromophenyl)-N-(4-(2-(4-(2-methoxyethyl)piperazin-1-yl)ethyl)phenyl)-5,6-dihydrobenzo[h]quinazolin-2-amine hydrochloride] had a melting point of 263 to 265 °C.

As to `Nc1ncc2c(n1)-c1ccccc1C(c1ccc(Cl)c(Cl)c1)C2` (stereo not shown), the melting point is 159 to 160 °C. Consider `Clc1ccc([C@H]2Cc3cnc(Nc4ccc(CCN5CCOCC5)cc4)nc3-c3ccccc32)cc1Cl` [Example 51, (R)-6-(3,4-dichlorophenyl)-N-(4-(2-morpholinoethyl)phenyl)-5,6-dihydrobenzo[h]quinazolin-2-amine], for which the melting point lay within 166 to 167 °C. `Fc1ccccc1[C@@H]1Cc2cnc(Nc3ccc(CCN4CCCCC4)cc3)nc2-c2ccccc21` (as salt: hydrochloride) [Example 67, (R)-6-(2-fluorophenyl)-N-(4-(2-(piperidin-1-yl)ethyl)phenyl)-5,6-dihydrobenzo[h]quinazolin-2-amine hydrochloride] came in with a melting point of 170 to 174 °C. `OCCc1cc(Nc2ncc3c(n2)-c2ccccc2[C@H](c2ccccc2F)C3)ccc1F` [Example 169, (R)-2-(2-fluoro-5-(6-(2-fluorophenyl)-5,6-dihydrobenzo[h]quinazolin-2-ylamino)phenyl)ethano] came in with a melting point of 140 to 141 °C. The same measure for `CCCCN(C)CCc1cccc(Nc2ncc3c(n2)-c2ccccc2[C@H](c2ccccc2F)C3)c1` (as salt: hydrochloride): 163 to 167 °C; for `CCCCN(C)CCc1ccc(Nc2ncc3c(n2)-c2ccccc2[C@H](c2ccc(Br)cc2)C3)cc1` (as salt: hydrochloride) [Example 98, (S)-6-(4-bromophenyl)-N-(4-(2-(butyl(methyl)amino)ethyl)phenyl)-5,6-dihydrobenzo[h]quinazolin-2-amine hydrochloride salt]: 170 to 175 °C.

`Brc1cccc(C2Cc3cnc(Nc4ccc(CCNCCN5CCOCC5)cc4)nc3-c3ccccc32)c1` (stereo not shown) [Example 45, 6-(3-bromophenyl)-N-(4-(2-(2-morpholinoethylamino)ethyl)phenyl)-5,6-dihydrobenzo[h]quinazolin-2-amine] had a melting point of 85 to 87 °C.

`Fc1ccc([C@@H]2Cc3cnc(Nc4ccc(CCN5CCCCC5)cc4)nc3-c3ccccc32)cc1F` (as salt: hydrochloride) [Example 84, (S)-6-(3,4-difluorophenyl)-N-(4-(2-(piperidin-1-yl)ethyl)phenyl)-5,6-dihydrobenzo[h]quinazolin-2-amine hydrochloride] had a melting point of 163 to 165 °C. In turn, `COCCNCCc1ccc(Nc2ncc3c(n2)-c2ccccc2C(c2ccccc2C(F)(F)F)C3)cc1` (stereo not shown) [Example 70, N-(4-(2-(2-methoxyethylamino)ethyl)phenyl)-6-(2-(trifluoromethyl)phenyl)-5,6-dihydrobenzo[h]quinazolin-2-amine] showed a melting point of 61 to 62 °C. As for `COCCN1CCN(CCc2ccc(Nc3ncc4c(n3)-c3ccccc3C(c3ccc(Cl)c(Cl)c3)C4)cc2)CC1` (stereo not shown) [Example 33, 6-(3,4-dichlorophenyl)-N-(4-(2-(4-(2-methoxyethyl)piperazin-1-yl)ethyl)phenyl)-5,6-dihydrobenzo[h]quinazolin-2-amine], the melting point was 121 to 122 °C. Then `Brc1cccc(C2Cc3cnc(Nc4ccc(CCN5CCOCC5)cc4)nc3-c3ccccc32)c1` (stereo not shown) [Example 31, 6-(3-bromophenyl)-N-(4-(2-morpholinoethyl)phenyl)-5,6-dihydrobenzo[h]quinazolin-2-amine], with 86 to 88 °C; and `COCCN1CCN(CCc2cc(Nc3ncc4c(n3)-c3ccccc3[C@H](c3ccccc3F)C4)ccc2F)CC1` (as salt: hydrochloride) [Example 175, (R)—N-(4-fluoro-3-(2-(4-(2-methoxyethyl)piperazin-1-yl)ethyl)phenyl)-6-(2-fluorophenyl)-5,6-dihydrobenzo[h]quinazolin-2-amine hydrochloride salt], with 199 to 201 °C. As for `Clc1ccc(C2Cc3cnc(Nc4ccc(CCN5CCCCC5)cc4)nc3-c3ccccc32)cc1Cl` (stereo not shown), the melting point fell in the range of 181 to 183 °C.

On to `CN(CCc1ccccc1)CCc1ccc(Nc2ncc3c(n2)-c2ccccc2[C@H](c2ccccc2F)C3)cc1` (as salt: hydrochloride) [Example 93, (R)-6-(2-fluorophenyl)-N-(4-(2-(methyl(phenethyl)amino)ethyl)phenyl)-5,6-dihydrobenzo[h]quinazolin-2-amine hydrochloride salt], for which the melting point lay within 135 to 145 °C. In the case of `Clc1ccc([C@@H]2Cc3cnc(Nc4ccccc4)nc3-c3ccccc32)cc1Cl` [Example 15, (S)-6-(3,4-dichlorophenyl)-N-phenyl-5,6-dihydrobenzo[h]quinazolin-2-amine], the melting point was 159 °C.

Take `CCCCN(C)CCc1cc(Nc2ncc3c(n2)-c2ccccc2[C@H](c2ccccc2F)C3)ccc1F` (as salt: hydrochloride) [Example 172, (R)—N-(3-(2-(butyl(methyl)amino)ethyl)-4-fluorophenyl)-6-(2-fluorophenyl)-5,6-dihydrobenzo[h]quinazolin-2-amine hydrochloride salt]: the melting point was 125 to 130 °C.

For the compound `COCCNCCc1ccc(Nc2ncc3c(n2)-c2ccccc2[C@H](c2ccccc2F)C3)cc1` (as salt: hydrochloride) [Example 94, (R)-6-(2-fluorophenyl)-N-(4-(2-(2-methoxyethylamino)ethyl)phenyl)-5,6-dihydrobenzo[h]quinazolin-2-amine hydrochloride salt], the melting point is 198 to 201 °C. The same measure for `CCN(CCc1ccc(Nc2ncc3c(n2)-c2ccccc2C(c2cccc(Br)c2)C3)cc1)C(C)C` (stereo not shown) [Example 40, 6-(3-bromophenyl)-N-(4-(2-(ethyl(isopropyl)amino)ethyl)phenyl)-5,6-dihydrobenzo[h]quinazolin-2-amine]: 67 to 69 °C; for `COCCN1CCN(CCc2ccc(Nc3ncc4c(n3)-c3ccccc3[C@H](c3ccc(Cl)c(Cl)c3)C4)cc2)CC1` (as salt: hydrochloride) [Example 115, (S)-6-(3,4-dichlorophenyl)-N-(4-(2-(4-(2-methoxyethyl)piperazin-1-yl)ethyl)phenyl)-5,6-dihydrobenzo[h]quinazolin-2-amine hydrochloride]: 248 to 250 °C. The compound `Fc1ccc([C@H]2Cc3cnc(Nc4ccc(CCN5CCCCC5)cc4)nc3-c3ccccc32)cc1F` (as salt: hydrochloride) [Example 91, (R)-6-(3,4-difluorophenyl)-N-(4-(2-(piperidin-1-yl)ethyl)phenyl)-5,6-dihydrobenzo[h]quinazolin-2-amine hydrochloride] had a melting point of 165 to 167 °C.

Values taken from patent US8357694B2, “Substituted 5,6-dihydro-6-phenylbenzo[F]isoquinolin-2-amine compounds” (ArQule, Inc., priority 2008, dated 2013).
